Experimental data: article PMC8305076, “Comprehensive Evaluation of Biological Effects of Pentathiepins on Various Human Cancer Cell Lines and Insights into Their Mode of Action” (International Journal of Molecular Sciences, 2021)
Where two headings read alike, the source gives them in different places.

How the values were obtained:
Assay in all cases: MTT cell viability assay
Assay type in all cases: cell-based
LCLC-103H = conditions: Homo sapiens, 48 h
Description: (§1) Distinct MTT cell viability and crystal violet cell proliferation assays were performed to assess the cytotoxicity of the compounds 1–6 on 14 human cancer cell lines. In the viability assay, cells with intact mitochondria and thus active dehydrogenases are competent to convert MTT to the corresponding insoluble formazan. The formazan can be photometrically detected after solubilization and allows for indirect conclusions about the viability of the cells as an IC50 value. In the crystal violet assay, cells are stained by the binding of the dye to the chromatin, thus allowing for a quantification of biomass that remains adherent after a treatment in comparison with a control after a specific time. Potency is defined as the growth inhibitory concentration 50% (GI50).
(§2) In addition to performing the cell viability assay under normoxia (19% atmospheric oxygen), incubations were also conducted under hypoxic conditions, i.e., atmospheric oxygen levels of 1% during the treatment for 48 h. Hypoxia is a favorable condition of the tumor microenvironment that is connected with poor outcome. Therefore, the low oxygen condition mimics better the tumor environment. The biological effect of the pentathiepins under this condition provides insight into their dependency for oxygen, which has been postulated a key component in the proposed mechanism of action (Figure 3). Consistent with the proposed mechanism of action for five of the compounds, potency decreased under hypoxic conditions; in fact for 6, the half-maximal inhibitory concentration exceeded the highest tested concentration of 10 µM in four cell lines (Figure 6, Table S3). […] In contrast to the other compounds, in some cell lines, the cytotoxic effects of 1 were more pronounced under oxygen-reduced incubation conditions (Figure 6), indicating a tangential role of oxygen availability for this pentathiepin. Especially for the breast cancer cell line MCF-7, the cytotoxicity increased substantially, indicated by a decrease of the IC50 from >10.0 µM to about 1.0 µM.
(§3) The effect of the pentathiepins on the viability of the cell lines was assessed via an MTT assay, performed as previously described. Healthy and viable cells convert the yellow soluble 3-(4,5-dimethylthiazol-2-yl)-2,5-diphenyltetrazolium bromide to the insoluble purple corresponding formazan, which can be spectrophotometrically measured. For this assay, 5000 cells (1 250 for LCLC-103H) in 0.1 mL of medium were seeded per well of a 96-well plate and incubated at standard conditions for 24 h prior to treatment. A serial dilution of the test compounds was prepared in medium, covering final concentrations from 10.0 to 0.04 µM, and 0.1 mL of the working solution was added to each well in triplicate. After 48 h, 20 µL of a 2.5 mg/mL MTT in PBS solution was pipetted into each well and further incubated for 4 h at standard conditions. Thereafter, medium was replaced with 50 µL DMSO, and the plates were put on a shaker for 5 min and subsequently read at λ = 570 nm, with a SpectraMax 384plus (Molecular Devices, Sunnyvale, CA, USA). The cell viabilities of the treatment conditions were calculated in relation to a solvent control sample. The absolute IC50 was calculated via nonlinear regression followed by interpolation of the dose–response graphs in Prism 7 (GraphPad, San Diego, CA, USA). The IC90 was derived from the IC50 by using the slope factor of the dose–response graph with the tool QuickCalcs from GraphPad (GraphPad Software, San Diego, CA, USA).

Kyse-70 = conditions: Homo sapiens, 48 h
Description: as §1, §2, §3

YAPC = conditions: Homo sapiens; for IC50: 48 h; for IC90: calculated via GraphPad QuickCalcs from MTT IC50 and slope factor
Description: as §1, §2, §3

RT-4 = conditions: Homo sapiens, 48 h
Description: as §1, §2, §3

HAP-1 = conditions: Homo sapiens; for IC50: HAP1, 48 h; for IC90: HAP1, calculated via GraphPad QuickCalcs from MTT IC50 and slope factor
Description: as §1, §2, §3

DanG = conditions: Homo sapiens; for IC50: 48 h; for IC90: calculated via GraphPad QuickCalcs from MTT IC50 and slope factor
Description: as §1, §2, §3

PATU-8902 = conditions: Homo sapiens; for IC50: 48 h; for IC90: calculated via GraphPad QuickCalcs from MTT IC50 and slope factor
Description: as §1, §2, §3

A2780cis = conditions: Homo sapiens, 48 h
Description: as §1, §2, §3

A-427 = conditions: Homo sapiens, 48 h
Description: as §1, §2, §3

A2780 = conditions: Homo sapiens; for IC50: 48 h; for IC90: calculated via GraphPad QuickCalcs from MTT IC50 and slope factor
Description: as §1, §2, §3

RT-112 = conditions: Homo sapiens, 48 h
Description: as §1, §2, §3

HAP-1.KO.GPx1 = conditions: Homo sapiens; for IC50: 48 h; for IC90: calculated via GraphPad QuickCalcs from MTT IC50 and slope factor
Description: as §1, §2, §3

Siso = conditions: Homo sapiens; for IC50: 48 h; for IC90: calculated via GraphPad QuickCalcs from MTT IC50 and slope factor
Description: as §1, §2, §3

[1] = hypoxic (1% O2), read-out: IC50 MTT-H mean
[2] = normoxic (19% O2), read-out: IC50 MTT-N mean

`CCOc1c2c(c3ccc(C(=O)N(CC)CC)cn13)SSSSS2` [Compound 4, 6-Ethoxy-N,N’-diethyl-[1,2,3,4,5]pentathiepino[6,7-a]indolizine-9-carboxamide] was tested, and the IC50 (LCLC-103H; [1]) was 0.827 µM, the IC50 (LCLC-103H; [2]) was 0.674 µM and the IC50 (Kyse-70; [1]) was 3.6 µM. It also gave an IC50 (Kyse-70; [2]) of 0.976 µM, an IC50 (YAPC; [1]) of 2.21 µM and an IC50 (YAPC; [2]) of 1.15 µM. It also gave an IC90 (YAPC) of 3.7 µM, an IC50 (RT-4; [1]) of 2.22 µM and an IC50 (RT-4; [2]) of 1.31 µM. For the same compound, the IC50 (HAP-1; [1]) was 0.832 µM, the IC50 (HAP-1; [2]) was 0.263 µM and the IC90 (HAP-1) was 0.51 µM. It also gave an IC50 (DanG; [1]) of 4.46 µM, an IC50 (DanG; [2]) of 1.65 µM and an IC90 (DanG) of 2.71 µM. For the same compound, the IC50 (PATU-8902; [1]) was 1.27 µM, the IC50 (PATU-8902; [2]) was 0.823 µM and the IC90 (PATU-8902) was 6 µM. It also gave an IC50 (A2780cis; [1]) of 0.544 µM, an IC50 (A2780cis; [2]) of 0.399 µM and an IC50 (A-427; [1]) of 1.19 µM. The IC50 (A-427; [2]) was 1.09 µM, the IC50 (A2780; [1]) was 0.799 µM and the IC50 (A2780; [2]) was 0.213 µM. The IC90 (A2780) was 0.61 µM, the IC50 (RT-112; [1]) was 1.78 µM and the IC50 (RT-112; [2]) was 1.2 µM. For the same compound, the IC50 (HAP-1.KO.GPx1; [1]) was 1.19 µM, the IC50 (HAP-1.KO.GPx1; [2]) was 0.322 µM and the IC90 (HAP-1.KO.GPx1) was 0.64 µM. For the same compound, the IC50 (Siso; [1]) was 4.25 µM, the IC50 (Siso; [2]) was 0.934 µM and the IC90 (Siso) was 1.93 µM.

With `CCOc1c2c(c3ccc(C(=O)N4CCN(S(=O)(=O)c5ccc(C)cc5)CC4)cn13)SSSSS2` [Compound 6, (6-Ethoxy-[1,2,3,4,5]pentathiepino[6,7-a]indolizin-9-yl)(4-tosylpiperazinyl)methanone] the IC50 (LCLC-103H; [1]) was 2.53 µM, the IC50 (LCLC-103H; [2]) was 2.82 µM and the IC50 (Kyse-70; [1]) was greater than 10 µM. It also gave an IC50 (Kyse-70; [2]) of 1.95 µM, an IC50 (YAPC; [1]) of 3.72 µM and an IC50 (YAPC; [2]) of 5.17 µM. The IC90 (YAPC) was 17.9 µM, the IC50 (RT-4; [1]) was 5.05 µM and the IC50 (RT-4; [2]) was 1.55 µM. The IC50 (HAP-1; [1]) was 1.32 µM, the IC50 (HAP-1; [2]) was 0.722 µM and the IC90 (HAP-1) was 1.46 µM. The IC50 (DanG; [1]) was greater than 10 µM, the IC50 (DanG; [2]) was 2.18 µM and the IC90 (DanG) was 4.94 µM. For the same compound, the IC50 (PATU-8902; [1]) was greater than 10 µM, the IC50 (PATU-8902; [2]) was 2.98 µM and the IC90 (PATU-8902) was 7.58 µM. The IC50 (A2780cis; [1]) was 1.72 µM, the IC50 (A2780cis; [2]) was 1.51 µM and the IC50 (A-427; [1]) was 1.39 µM. For the same compound, the IC50 (A-427; [2]) was 1.79 µM, the IC50 (A2780; [1]) was 2.11 µM and the IC50 (A2780; [2]) was 0.891 µM. The IC90 (A2780) was 2.39 µM, the IC50 (RT-112; [1]) was greater than 10 µM and the IC50 (RT-112; [2]) was 3.41 µM. It also gave an IC50 (HAP-1.KO.GPx1; [1]) of 1.84 µM, an IC50 (HAP-1.KO.GPx1; [2]) of 0.778 µM and an IC90 (HAP-1.KO.GPx1) of 1.46 µM. It also gave an IC50 (Siso; [1]) greater than 10 µM, an IC50 (Siso; [2]) of 3.26 µM and an IC90 (Siso) of 5.07 µM.

Work on `CCOc1c2c(c3ccc(C(=O)N4CCCCC4)cn13)SSSSS2` [Compound 2, (6-Ethoxy-[1,2,3,4,5]pentathiepino[6,7-a]indolizin-9-yl)(piperidinyl)methanone] yielded an IC50 (LCLC-103H; [1]) of 1.54 µM, an IC50 (LCLC-103H; [2]) of 1.36 µM and an IC50 (Kyse-70; [1]) of 2.1 µM. For the same compound, the IC50 (Kyse-70; [2]) was 1.58 µM, the IC50 (YAPC; [1]) was 2.23 µM and the IC50 (YAPC; [2]) was 1.55 µM. The IC90 (YAPC) was 4.26 µM, the IC50 (RT-4; [1]) was 5.9 µM and the IC50 (RT-4; [2]) was 1.59 µM. It also gave an IC50 (HAP-1; [1]) of 0.847 µM, an IC50 (HAP-1; [2]) of 0.6 µM and an IC90 (HAP-1) of 1.18 µM. The IC50 (DanG; [1]) was 4.35 µM, the IC50 (DanG; [2]) was 1.99 µM and the IC90 (DanG) was 3.06 µM. The IC50 (PATU-8902; [1]) was 3.15 µM, the IC50 (PATU-8902; [2]) was 1.72 µM and the IC90 (PATU-8902) was 6.52 µM. It also gave an IC50 (A2780cis; [1]) of 0.637 µM, an IC50 (A2780cis; [2]) of 0.652 µM and an IC50 (A-427; [1]) of 1.07 µM. The IC50 (A-427; [2]) was 1.46 µM, the IC50 (A2780; [1]) was 0.804 µM and the IC50 (A2780; [2]) was 0.43 µM. It also gave an IC90 (A2780) of 1 µM, an IC50 (RT-112; [1]) of 1.72 µM and an IC50 (RT-112; [2]) of 1.34 µM. It also gave an IC50 (HAP-1.KO.GPx1; [1]) of 1.19 µM, an IC50 (HAP-1.KO.GPx1; [2]) of 0.644 µM and an IC90 (HAP-1.KO.GPx1) of 1.2 µM. For the same compound, the IC50 (Siso; [1]) was 2.96 µM, the IC50 (Siso; [2]) was 1.38 µM and the IC90 (Siso) was 2.7 µM.
